Experimental data as given in patent US20260263517A1, “THERAPEUTIC METHODS WITH TARGET-LINKED SMALL MOLECULES AND ANTI-TARGET CAR T CELLS” (Seattle Children's Hospital (dba Seattle Children's …, priority 2022, published 2026).

What was measured:
[1] = cited from earlier work
[2] = cited from earlier work; remark: listed apart in the source
tumor cell surface FR = details: cited from earlier work
water solubility of EC17 = type: physicochemical
[3] = EC17 dose finding and CRS assessment in tumor-free mice; type: in vivo, NSG mice
From the text: For MDA-MB-231 studies, mice received a high dose (~10 million) of a “clinical facsimile” of E2-CAR-T cells (~39% EGFRt+) with a low differentiation profile (FIG. 9). Two days later, 3 different treatment regimens of EC17 were started at an average tumor size of −293±39 mm^3 (FIG. 12). The EC17 dosing was given once-a-week (SIW) at 500 nmol/kg on Mondays, or as escalating doses of 5, 50 or 100, and 500 or 1000 nmol/kg (i.e., 5/50/500 or 5/100/1000) on Monday, Thursday, and Monday with a 6-day break in-between cycles. Control mice were left untreated (received CAR-T cells but no EC17). For comparison, a cohort of tumor-free littermates also received the same number of CAR-T cells without or with EC17 SIW at 500 nmol/kg.
The initial EC17 dose finding studies were conducted in MDA-MB-231 tumor bearing mice as shown by the schematic diagram of the experimental layout (FIG. 12, panel A). NSG mice without or with MDA-MB-231 tumors (~211±65 mm3) were engrafted on day 0 with −10 million of a “clinical facsimile” batch of E2-CAR-T cells (−39% EGFRt+, 51:49 CD4/CD8). This batch of CAR-T cells consisted of mostly TSCM and TCM phenotypes (see FIG. 9). Two days after the CAR-T cell injection, one cohort of tumor-bearing mice were left untreated while three cohorts were treated with different regimens of EC17, including single injection per week (SIW) at 500 nmol/kg, or as escalating EC17 dose levels of 5/50/500 (Escalation-1) or 5/100/1000 nmol/kg (Escalation-2) given on a Monday/Thursday/Monday schedule with 1-week drug-free intervals. For comparison, two tumor-free cohorts were either untreated or treated with EC17 SIW at 500 nmol/kg.

In the case of `NC1=NC2N=CC(CNc3ccc(C(=O)N[C@@H](CCC(=O)NCCNC(=S)Nc4ccc(-c5c6ccc(=O)cc-6oc6cc(O)ccc56)c(C(=O)O)c4)C(=O)O)cc3)=NC2C(=O)N1` (stereo partly shown) [EC17, FA-(γ)-ethylenediamine-FITC], the “Maximum Tolerated Dose (MTD)” value ([1]; EC17 doses of 3.1×10^−2 and 2.76×10^−1 mg/kg in previously-conducted human studies) is listed as “not reached”, the “subjects with mild hypersensitivity reaction (most common adverse event)” value ([1]; intravenous, single agent, 84 subjects) is listed as 10.7% and the overall tolerability ([1]; intravenous, single agent) is listed as “well tolerated”. For the same compound, the serious adverse events ([1]; intravenous, single agent) was “No serious adverse events were reported”, the clearance from circulation ([2]; 0.1 mg/kg intravenous) was “rapid clearance from circulation” and the “time EC17 fluorescence signal observed at the site of the tumor” value ([2]; after administration, latest time-point evaluated) was “up to 5 hours”. The “time to real-time visualization of malignant lesions” value ([2]; post EC17 administration) was no more than 2 h, the elimination half-life ([2]; single 10-minute intravenous infusion of 0.1 mg/kg, plasma) was 1.45 h and the “affinity for tumor cell surface FR” value (tumor cell surface FR) was “sub-nanomolar”. The water solubility (water solubility of EC17) was “good water solubility”, the “CAR-T cell expansion by flow cytometry” value ([3]; tumor-free cohorts) was “no CAR-T cell expansion was detected” and the body weight loss ([3]; tumor-free mice, CAR-T cells + two weekly doses of EC17 at 500 nmol/kg) was “no CRS symptoms (grade 0 out of a 0-5 scale) or body weight loss”. For the same compound, the IFNγ in plasma ([3]; tumor-free, CAR-T cells plus EC17, days 11 and 12) was “low levels of IFNγ were detected”.
